Reference: BindingDB's records for PubMed 36332550 (Peking Union Medical College, 2022)

What was measured:
Zinc finger protein GLI1 [1] = target: T1, Zinc finger protein GLI1 (Homo sapiens, UniProt P08151); experiment: Inhibition of GLI1 (unknown origin) transcriptional activity
T1 sequence (P08151 whole entry): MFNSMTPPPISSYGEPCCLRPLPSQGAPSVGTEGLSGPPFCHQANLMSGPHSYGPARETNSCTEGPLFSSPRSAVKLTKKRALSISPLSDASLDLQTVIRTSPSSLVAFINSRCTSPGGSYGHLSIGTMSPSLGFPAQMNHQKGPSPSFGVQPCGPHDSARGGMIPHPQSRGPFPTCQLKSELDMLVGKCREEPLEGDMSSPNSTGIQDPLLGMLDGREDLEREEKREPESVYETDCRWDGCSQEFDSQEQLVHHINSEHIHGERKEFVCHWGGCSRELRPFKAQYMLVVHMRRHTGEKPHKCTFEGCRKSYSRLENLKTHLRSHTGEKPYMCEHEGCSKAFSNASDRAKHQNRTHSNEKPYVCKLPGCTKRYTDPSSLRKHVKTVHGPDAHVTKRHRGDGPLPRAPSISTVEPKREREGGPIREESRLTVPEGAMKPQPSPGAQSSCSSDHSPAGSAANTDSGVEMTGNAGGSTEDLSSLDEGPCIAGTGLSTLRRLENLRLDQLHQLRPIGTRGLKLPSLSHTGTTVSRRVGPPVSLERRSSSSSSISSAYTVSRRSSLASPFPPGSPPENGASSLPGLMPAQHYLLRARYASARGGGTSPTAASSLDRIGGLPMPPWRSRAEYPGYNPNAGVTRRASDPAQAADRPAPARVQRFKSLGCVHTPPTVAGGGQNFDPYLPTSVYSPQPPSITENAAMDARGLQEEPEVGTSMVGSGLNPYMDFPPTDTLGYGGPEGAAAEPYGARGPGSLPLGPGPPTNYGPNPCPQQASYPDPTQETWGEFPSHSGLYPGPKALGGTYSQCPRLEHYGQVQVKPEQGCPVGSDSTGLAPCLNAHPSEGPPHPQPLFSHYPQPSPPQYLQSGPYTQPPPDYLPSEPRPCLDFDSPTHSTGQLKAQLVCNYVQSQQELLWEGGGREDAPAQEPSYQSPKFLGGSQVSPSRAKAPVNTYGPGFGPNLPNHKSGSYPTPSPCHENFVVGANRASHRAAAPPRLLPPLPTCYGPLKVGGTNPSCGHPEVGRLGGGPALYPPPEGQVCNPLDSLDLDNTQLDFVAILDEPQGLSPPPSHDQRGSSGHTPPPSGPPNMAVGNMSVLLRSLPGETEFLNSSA

Zinc finger protein GLI1 [2] = target: T1, Zinc finger protein GLI1; experiment: Inhibition of GLI1-mediated transcriptional activity in human HaCaT cells coexpressing luciferase

| Structure (SMILES) | IC50 (Zinc finger protein GLI1 [1]) [nM] | IC50 (Zinc finger protein GLI1 [2]) [µM] |
| --- | --- | --- |
| C[C@@]12C[C@H]3OC(=O)[C@@H]1CO[C@]14O[C@@]5([C@H]2C1=O)[C@@]3(C)OC(=O)[C@@]5(O)CC[C@H]1[C@H]4C[C@H]2O[C@]23CC=CC(=O)[C@]13C | 700 | – |
| C[C@]12C(=O)CC=CC1=CC[C@@H]1[C@@H]2CC[C@]2(O)C(=O)O[C@@]3(C)[C@H]4C[C@]5(C)[C@@H](CO[C@@]16O[C@@]32[C@H]5C6=O)C(=O)O4 | 4200 | – |
| O[C@H]1[C@H]2c3cc4c(cc3CN3CCC(=C[C@@H]1O)[C@H]23)OCO4 [9,10-(methylenedioxy)-3,12-didehydrogalanthan-1alpha,2beta-diol] | – | 19 |
| CO[C@H]1C=C[C@@]23c4cc5c(cc4CN(C[C@@H]2O)[C@H]3C1)OCO5 [CHEBI:3914] | – | 4.7 |
| C[C@]12C(=O)C=CCC1=CC[C@@H]1[C@@H]2CC[C@]2(O)C(=O)O[C@@]3(C)[C@H]4C[C@]5(C)[C@@H](CO[C@@]16O[C@@]32[C@H]5C6=O)C(=O)O4 [NSC-287088] | 600 | – |
